Measured values: patent US11814372B2, “Agonists of EPHA and their uses” (CASE WESTERN RESERVE UNIVERSITY, priority 2017, dated 2023)

Biological target: T1, EphA2 LBD (Homo sapiens, UniProt P29317)
T1 construct: fused on or other part: Minimal biotinylation for capture on Neutravidin (doxazosin run); amine coupling for the other compounds
Assay: Surface Plasmon Resonance binding analysis
Details: SPR, recombinant LBD of EphA2; read-out: dissociation constant (KD)
Procedure: Binding analysis was carried out using standard biosensor chips and the […] Dual Channel SPR System (Reichert Life Sciences, Depew, N.Y.). The extracellular domain (ECD) of EphA2 was coupled to the chip by standard amine coupling using 1-ethyl-3-(3-dimethylaminopropyl) carbodiimide (EDC) and N-hydroxysuccinimide (NHS), followed by ethanolamine wash. In the case of doxazosin, Neutravidin was coupled to the chip, followed by ethanolamine wash and addition of minimally biotinylated EphA2 ECD to properly orient the protein. Different concentrations of dobutamine, labetalol, and doxazosin in running buffer (PBS, 0.05% Tween-20, 1% DMSO) were flown over the chip at a rate of […] and binding analyzed in real-time. After approximately 60 seconds, running buffer was flown over the chip to dissociate the compounds from the coupled protein (downward slope of curve). Binding data were analyzed and KD values determined using Clamp software (BioLogic Software Pty Ltd).

T1 sequence (P29317 28-206 limits assumed): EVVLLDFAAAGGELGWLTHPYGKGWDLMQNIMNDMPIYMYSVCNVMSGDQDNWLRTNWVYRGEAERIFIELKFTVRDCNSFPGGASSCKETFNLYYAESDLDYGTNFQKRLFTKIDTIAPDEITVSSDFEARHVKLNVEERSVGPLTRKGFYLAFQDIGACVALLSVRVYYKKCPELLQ

## CC(CCc1ccc(O)cc1)NCCc1ccc(O)c(O)c1 (centres unmarked) [dobutamine]
  Kd: 1500 µM

## CC(CCc1ccccc1)NCC(O)c1ccc(O)c(C(N)=O)c1 (centres unmarked) [labetalol]
  Kd: 440 µM
